The subject of one data set is apo (a). Briefly: apo (a) secretion in primary cultures of Cynomolgus hepatocytes (ELISA). Type of data set: cell-based, Cynomolgus monkey. Particulars: Macaca fascicularis, Hepatocyte, 6-24 hours, vs ethanol control, read-out: change in apo (a) secretion in culture medium, percentage of control. On the procedure: The compounds of formula (I) were assayed for being able to effectively lower the production of apo (a) in primary cultures of Cynomolgus hepatocytes.
Hepatocytes were isolated from livers of male adult Cynomolgus monkeys by the two-step collagenase perfusion method according to C. Guguen-Guillouzo and A. Guillouzo “Methods for preparation of adult and fetal hepatocytes” p.1-12 in “Isolated and Cultured Hepatocytes”, les editions Inserm Paris and John Libbey Eurotext London (1986).
The viability of cells was determined by Trypan blue staining. The cells were then seeded at a density of 1.5-2.105 viable cells per 2 cm^2 in 24 well tissue culture plates in a volume of 500 μl per well of Williams E tissue culture medium containing 10% fetal calf serum. Cells were incubated for 6-24 hours at 37° C. in a CO2 incubator (5% CO2) in the presence of 20 μM of the test compounds dissolved in ethanol. Four wells were used for each compound. Nicotinic acid and steroid hormones were used as references to validate the assay system since they are known to decrease apo (a) in man. Control cells were incubated in the presence of ethanol only.
The amount of apo (a) secreted in culture medium was assayed directly by ELISA using a commercially available kit. Changes in apo (a) concentration in culture medium are given as the percentage of value measured for the control plates.
In general terms: ELISA stands for enzyme-linked immunosorbent assay.

This is an account of results in patent US6706698B2, “α-Substituted β-aminoethyl phosphonate derivatives” (Ilex Products, Inc., priority 2000, dated 2004).

As a reminder, the melting point is the temperature, or range, at which the solid turns liquid.

On to `CCOP(=O)(OCC)C(CNc1cnccn1)c1cc(C)c(O)c(C)c1` (stereo not drawn) [Example 25, Diethyl α-(3,5-dimethyl-4-hydroxyphenyl)-β-[N-(pyrazinyl)-amino]-ethylphosphonate], for which the inhibition at 20 µM in the data set on apo (a) was 19 to 55%.
As for `CCOP(=O)(OCC)C(CNc1ncccn1)c1cc(C)c(O)c(OC)c1` (stereo not drawn) [Compound 53, diethyl α-(4-hydroxy-3-methoxy-5-methylphenyl)-β-[N-(2-pyrimidinyl)-amino]-ethylphosphonate], the melting point fell in the range of 133 to 136 °C. For the same molecule, in the data set with apo (a), the inhibition at 20 µM lay in the range of 19 to 55%.
As to `CCOP(=O)(OCC)C(CNc1cnccn1)c1cc(C)c(O)c(OC)c1` (stereo not drawn) [Compound 44, diethyl α-(4-hydroxy-3-methoxy-5-methylphenyl)-β-[N-(pyrazinyl)-amino]-ethylphosphonate], in the data set on apo (a), the inhibition at 20 µM lay within 19 to 55%.
The same measure, in the same setting: in the case of `CCOP(=O)(OCC)C(CNc1nc2ccccc2s1)c1cc(C)c(O)c(OC)c1` (stereo not drawn) [Compound 81, diethyl α-(4-hydroxy-3-methoxy-5-methylphenyl)-β-[N-(2-benzothiazolyl)-amino]-ethylphosphonate] it was 19 to 55%.
`COc1cc(C(CNc2cnccn2)P(=O)(OC(C)C)OC(C)C)cc(OC)c1O` (stereo not drawn) [Compound 43, diisopropyl α-(3,5-dimethoxy-4-hydroxyphenyl)-β-[N-(pyrazinyl)-amino]-ethylphosphonate] came in with a melting point of 169 to 171 °C. The inhibition at 20 µM in the data set on apo (a) fell in the range of 19 to 55%.
In the same order, the values of `CCOc1cc(C(CNc2cccnc2)P(=O)(OCC)OCC)cc(C)c1O` (stereo not drawn) [Compound 55, diethyl α-(3-ethoxy-4-hydroxy-5-methylphenyl)-β-[N-(3-pyridyl)-amino]-ethylphosphonate] are 155 to 156 °C and 19 to 55%.
In the same order, the values of `CCOP(=O)(OCC)C(CNc1cnccn1)c1cc(OC)c(O)c(OC)c1` (stereo not drawn) [Compound 42, diethyl α-(3,5-dimethoxy-4-hydroxyphenyl)-β-[N-(pyrazinyl)-amino]-ethylphosphonate] are 147 to 148 °C and 19 to 55%.
Molecule `CCOP(=O)(OCC)C(CNc1nccs1)c1cc(C)c(O)c(OC)c1` (stereo not shown) had a melting point of 85 to 87 °C.
`COc1cc(C(CNc2cccnc2)P(=O)(OC(C)C)OC(C)C)cc(OC)c1O` (stereo not drawn) [Compound 33, diisopropyl α-(3,5-dimethoxy-4-hydroxyphenyl)-β-[N-(3-pyridyl)-amino]-ethylphosphonate] had a melting point of 156 to 158 °C. Besides, in the data set on apo (a), the inhibition at 20 µM lay within 19 to 55%.
With `CCOP(=O)(OCC)C(CNc1cnccn1)c1cc(C)c(O)c(C(C)(C)C)c1` (stereo not drawn) [Example 26, Diethyl α-(3-tert-butyl-4-hydroxy-5-methylphenyl)-β-[N-(pyrazinyl)-amino]-ethylphosphonate], the inhibition at 20 µM in the data set on apo (a) was in the range of 19 to 55%.
As to `CCOP(=O)(OCC)C(CNc1cccnc1)c1cc(OC)c(O)c(OC)c1` (stereo not shown), the melting point fell in the range of 152 to 154 °C.
On to `COc1cc(C(CNc2cccnc2)P(=O)(OC(C)C)OC(C)C)cc(C)c1O` (stereo not drawn) [Compound 35, diisopropyl α-(4-hydroxy-3-methoxy-5-methylphenyl)-β-[N-(3-pyridyl)amino]-ethylphosphonate], for which the inhibition at 20 µM in the data set on apo (a) was in the range of 19 to 55%.
For the molecule `Cc1cc(C(CNc2cccnc2)P(=O)(OC(C)C)OC(C)C)cc(C)c1O` (stereo not drawn) [Compound 47, diisopropyl α-(3,5-dimethyl-4-hydroxyphenyl)-β-[N-(3-pyridyl)-amino]-ethylphosphonate], the inhibition at 20 µM in the data set with apo (a) lay in the range of 19 to 55%.
The same measure, in the same setting: in the case of `CCOP(=O)(OCC)C(CNc1ccon1)c1cc(C)c(O)c(OC)c1` (stereo not drawn) [Compound 87, diethyl α-(4-hydroxy-3-methoxy-5-methylphenyl)-β-[N-(3-isoxazolyl)-amino]-ethylphosphonate] it was 19 to 55%.
